Measurements from publication PMC10610505, “Synthesis and Biological Evaluation of Some New 3-Aryl-2-thioxo-2,3-dihydroquinazolin-4(1H)-ones and 3-Aryl-2-(benzylthio)quinazolin-4(3H)-ones as Antioxidants; COX-2, LDHA, α-Glucosidase and α-Amylase Inhibitors; and Anti-Colon Carcinoma and Apoptosis-Inducing Agents” (Pharmaceuticals, 2023).

Assays:
Type in all cases: cell-based, human
Bax gene = assay: qRT-PCR expressional level of Bax gene; conditions: 10 µg/mL, HCT-116 and LoVo cells, vs negative control
Procedure: Considering these facts, enhancing apoptosis has been extensively studied as a potential drug target in cancer therapy, therefore, in this study, we investigated the effects of the most cytotoxic compounds, 3a and 3f, (at 10 µg/mL, 24 h incubation) on the expressional levels of these apoptotic regulator genes (Bax and Bcl-2) using quantitative reverse transcription–polymerase chain reactions (qRT-PCR).
(§1) Briefly, in a 25 mL flask (1 × 10^6 cells/flask), the human colon cancer cell lines (HCT-116 and LoVo) were grown for 24 h. After replacing the culture media with a medium containing 1% FBS for 24 h, the cells were treated with 10 µg/mL of each tested compound in 2 mL of fresh medium containing 1% FBS, or 0.25% DMSO, which was used as the negative control. The cells were adherent cells and they were detached using trypsin after being washed with ice-cold phosphate-buffered saline (PBS).
(§2) Primers specific for the Bax, Bcl-2 and Caspase-3 genes were designed using the primer blast (https://www.ncbi.nlm.nih.gov/tools/primer-blast/ accessed on 9 January 2023) software. The primers were used in the RT-qPCR analysis to amplify fragments of 100–200 bp in length (Table 11).
The RNeasy Mini Kit (Qiagen, Hilden, Germany) was used to extract the total RNA. The RNA purity, quality and quantity were checked using a Nanodrop 8000 spectrophotometer (Thermo Fisher Scientific, USA). […]

caspase-8 = assay: Western blot of caspase-8 in cell lysates; conditions: 50 µg/mL, 48 h
Procedure: Furthermore, in order to confirm the implication of these compounds in the apoptotic pathways trigged by caspases, the proteins levels of caspases 8 and 9 were evaluated using Western blot analysis for the HCT-116 and LoVo carcinoma cells lysates after treatment with compounds 3a and 3f (50 µg/mL for 48 h); the untreated cells were used as a negative control.
In order to determine the levels of production of caspases 8 and 9 by the treated carcinoma cells, Western blot analysis was carried out using a FLAG® Western Detection Kit (Agilent Technologies, USA). Exponentially growing HCT-116 and LoVo cells were treated with 50 µg/mL of derivatives 3a and 3f for 48 h. After incubation, the cells were harvested and lysed using a Lysis buffer consisting of 10 mM of Tris, 100 mM of NaCl, 25 mM of ethylenediaminetetra aceticacid (EDTA), 25 mM of Ethylene glycol bis(2-aminoethyl)tetraacetic acid (EGTA), 0.1% Sodium dodecyl sulfate (SDS), 1% (v/v) Triton X-100 and 2% (v/v) NP-40 (pH 7.4), with a 1:200 protease inhibitor cocktail (Sigma-Adrich) and a 1:300 phosphatase inhibitor cocktail tablet (Roche Applied Science, Mannheim, Germany). The protein concentrations of each sample were determined calorimetrically using the Bradford method before proceeding to carry out the Western blotting. Equal amounts (20 µg) of the protein samples were mixed and boiled with SDS Loading buffer for 10 min, allowed to cool on ice and then loaded into SDS-polyacrylamide gel and separated using a Cleaver electrophoresis unit (Cleaver, Warwickshire, UK), before being transferred onto polyvinylidene fluoride (PVDF) membranes (Bio-Rad, USA) for 30 min using a Semi-dry Electroblotter (Biorad, USA) at 2.5 A and 25 V for 30 min. The membrane was blocked with 5% nonfat dry milk in TBS-T for two hours at room temperature, in order to reduce non-specific protein interactions between the membrane and the antibody. The blocked membrane was incubated overnight at 4 °C with primary antibodies (Cell Signaling Technology, Massachusetts, USA) and β-actin (Sigma). […] Briefly, the membranes were incubated for 1 min with a mixture of equal volumes of ECL solution A and ECL solution B. The chemiluminescent signals were captured using a CCD camera-based imager (Chemi Doc imager, Biorad, USA), and the bands’ intensities were then measured using ImageLab v3.0 (Bio-Rad). […] The proteins were detected using an enhanced chemiluminescence (ECL) detection system (Thermo Fischer Scientific, USA). The intensities of the bands were quantified using the NIH ImageJ software v3.0.1 (http://rsb.info.nih.gov/ij/).

caspase-3 gene = assay: qRT-PCR expressional level of caspase-3 gene; conditions: 10 µg/mL, 24 h
Procedure: Therefore, in this study the expressional levels of caspase-3 as a major apoptosis effector were evaluated in 3a- and 3f-treated HCT-116 and LoVo cell cultures (10 µg/mL, for 24 h incubation), using qRT-PCR analysis.
as §1, §2
The RNeasy Mini Kit (Qiagen, Hilden, Germany) was used to extract the total RNA. The RNA purity, quality and quantity were checked using a Nanodrop 8000 spectrophotometer (Thermo Fisher Scientific, USA). The Hyperscript Kit (GeneAll, Seoul, Korea) and random hexamers (GeneAll, Seoul, Korea ) were used to reverse-transcript 1 µg of RNA from each sample into cDNA as described in the manufacturer’s protocol.
A QuantStudio 7Flex Detection System (Applied Biosystems, Thermo Fischer Scientific, Inc., USA) was used to measure the mRNA expression of Bax, Caspase-3 and Bcl-2. The reactions for the synthesis of cDNA were carried out using an iScript One-Step RT-PCR Kit with SYBR Green (cat no: 170–8892; Bio-Rad, Inc., Hercules, CA, USA). Briefly, primers (Table 10) were added to the reaction mixture at a final concentration of 10 pM. Thus, 5 µL of each cDNA sample were added to a […] PCR mixture consisting of 12.5 µL of 2 × iScript One-Step RT-PCR Kit with SYBR Green, 0.5 µL of primers for Bax, Caspase-3 and Bcl-2 as well as GAPDH (Macrogen, Seoul, Korea), and 7 µL RNase/DNase-free water (Qiagen, DE). The thermal cycling conditions for Bax, Caspase-3 and Bcl-2 were established as 5 min at 95 °C, followed by 40 cycles of 30 s at 95 °C and 30 s at 60 °C, and finally 10 s at 95 °C. The presence of a single melting temperature peak verified the specificity of each primer. The expression of a house-keeping gene, GAPDH, was used as an endogenous control for the current work.

Row | Structure (SMILES) | Expression level of Bax gene (Bax gene) | Increase in expressional level of caspase 8 (caspase-8; lysates of HCT-116) | Increase in expressional level of caspase 8 (caspase-8; lysates of LoVo) | Expression level of caspase-3 gene (upregulated) (caspase-3 gene; HCT-116, vs negative control) | Expression level of caspase-3 gene (upregulated) (caspase-3 gene; LoVo, vs negative control)
1 | O=c1c2cc(Cl)ccc2[nH]c(=S)n1-c1cccc(C(F)(F)F)c1 [Compound 3a, 6-Chloro-2-thioxo-3-(3-trifluoromethyl-phenyl)-2,3-dihydro-1H-quinazolin-4-one] | upregulate | 2.3 times | 5.1 times | 3.731 fold | 2.6026 fold
2 | O=c1c2cc(Cl)ccc2[nH]c(=S)n1-c1ccc([N+](=O)[O-])cc1 [Compound 3f, 6-Chloro-3-(4-nitro-phenyl)-2-thioxo-2,3-dihydro-1H-quinazolin-4-one] | upregulate | 2.2 times | 4.1 times | 6.071 fold | 6.9340 fold
